Legend:
5-lipoxygenase = assay: inhibition of 5-lipoxygenase activity in polymorphonuclear rat leucocytes (LTB4 formation); type: cell-based; conditions: 10^-5 mol/l; 22° C.
In short: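 Thioglycolate-elicited peritoneal PMNs from male Sprague-Dawley rats (0.5×10^6 cells) preincubated 15 min at 22 °C with 10 μM compound in HEPES-buffered HBSS, then stimulated with 5 μM calcimycin for 10 min. LTB4 quantified by reverse-phase HPLC at 270 nm; % inhibition versus solvent control.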

[1] = tested on: cutaneous histamine induced anaphylactoid reactions; assay: inhibition of the anaphylactoid cutaneous reaction induced by histamine; type: in vivo, Sprague-Dawley rats; conditions: Rattus norvegicus, po, 0.5 h; 2 × 10^-5 mole/kg p.o., one hour before histamine; assessed 30 minutes after provocation; read-out: Inhibitory action against cutaneous histamine induced anaphylactoid reactions in rats, % inhibition
Protocol: 1. Determination of the inhibition of the anaphylactoid cutaneous reaction induced by histamine.
The inhibition of the anaphylactoid cutaneous reaction induced by histamine was determined in Sprague-Dawley rats having body weights of 150-180 g.
In order to determine the histamine-induced anaphylactoid skin reaction, 50 μl of a physiological saline solution containing 0.8 mg/ml of histamine were injected into the animals intradermally on one flank. Immediately afterward, a solution of 26.4 mg/kg of a blue dye (Evan's Blue) was administered i.v. to the animals.
The test substances were dissolved in distilled water which contains 1% by volume of dimethylformamide and 1% by volume of Tween®20 (=polyoxyethylene(20) sorbitan monolaurate). One hour before the histamine injection, each animal received 2×10^-5 mol/kg of test substance, in each case administered orally in 0.5 ml of solution. A control group received only the solvent for comparison.
The histamine-induced anaphylactoid reactions which manifested themselves by edema formation, swelling and exudation of blue dye are assessed 30 minutes after provocation by the histamine injection. This is carried out by visual determination of the extent of the exudation of blue dye at the sites of edema formation. With the aid of comparison scales, the percentage inhibition of the anaphylactoid reactions produced by the test substances is determined in comparison with the reactions of the control animals not treated with test substance.
The results obtained with compounds of the formula I by the above test method are reproduced in the following table A. The example numbers given as identifiers for the compounds of formula I refer to the subsequent preparative examples.

male mice = conditions: mouse, in vivo, po, 1440 min
Protocol: 2. Determination of the minimum toxic dose.
Maximum doses of 300 mg/kg of the test substance were administered orally to male mice each weighing 20-25 g. The animals were carefully observed for symptoms of toxicity for 3 hours. All symptoms and deaths were additionally recorded over a period of 24 hours after administration. Associated symptoms were likewise observed and recorded. If death or severely toxic symptoms were observed, increasingly lower doses were administered to further mice. The lowest dose which caused death or severely toxic symptoms is indicated as the minimum toxic dose in the following Table B: […]

[2] = tested on: P.A.F.-induced aggregation of blood platelets; assay: anti-P.A.F. action in vitro (P.A.F.-induced platelet aggregation); type: cell-based; conditions: Oryctolagus cuniculus, 10^-5 mole/liter, read-out: Anti-P.A.F. activity in vitro, % inhibition of the P.A.F.-induced aggregation of blood platelets from rabbit blood
In short: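 Washed rabbit platelets (4×10^9/ml stock suspension, aspirin-lysine treated) in modified Tyrode buffer pH 7.4 with 1.3 mM CaCl2 and gelatine; test substance at 10^-5 mol/l final, 90 s preincubation before P.A.F. Aggregation followed 4-5 min by aggregometer; % inhibition of P.A.F.-induced aggregation increase calculated.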

Cc1ccnc(N2CCN(CCC3Cn4c(-c5ccc(O)cc5)c(C)c5c(Cl)ccc(c54)O3)CC2)c1 (stereo not shown) [Example 19]
In vitro inhibitory activity on LTB4 formation in rat PMNs stimulated by calcium ionophore A23187 (5-lipoxygenase): 45% | inhibition in vivo at 20 µmol/kg [1]: 45% | Minimum toxic dose (male mice): > 300 mg/kg | inhibition at 10 µM [2]: 71%
